Legend:
WT TOP = target: T1, WT TOP (Rattus norvegicus, UniProt P24155); experiment: Inhibition constant of JA-2, continuous assay with QFS, WT TOP; type: biochemical; conditions: substrate QFS, 37 °C, 50 mM Tris-HCl pH 7.4, 100 mM NaCl, 0.5 mM DTT
T1 construct: made in house; host or cells: Escherichia coli BL21 (DE3), pET26b
Description: (§1) WT TOP and mutant activities were monitored spectrofluorometrically in a Shimadzu RF-5301PC spectrofluorometer using the FRET peptide QFS (Mca-Pro-Leu-Gly-Pro-D-Lys (Dnp)-OH) as substrate, with excitation and emission wavelengths of 320 and 420 nm, respectively. TOP and its mutants were pre-activated by incubation with 0.5 mM DTT for 5 min at 37 °C. The concentration of the peptide solutions was determined by measuring the absorption of the 2,4-dinitrophenyl group at 365 nm (ε = 17,300 M^−1cm^−1). The kinetic parameters of peptide hydrolysis were determined at 37 °C in 50 mM Tris-HCl buffer, pH 7.4, containing 100 mM NaCl. […] The reaction was monitored continuously via the fluorescence of the released product. The rate of increase in fluorescence was converted into moles of substrate hydrolyzed per second based on the fluorescence curves of standard peptide solutions before and after total enzymatic hydrolysis. […] An empirical equation was used to correct for the inner-filter effect, and the kinetic parameters were calculated according to Wilkinson and by using Eadie–Hofstee plots. […]
(§2) Inhibition constants were determined using the TOP inhibitor JA-2 (N-[1-(R,S)-carboxy-3-phenylpropyl]Ala-Aib-Tyr-p-aminobenzoate). The constants were determined in a continuous assay using the FRET peptide QFS as substrate. […]

TOP^-TrpW390 = target: T2, TOP^-TrpW390 (Rattus norvegicus, UniProt P24155, W124F/W335F/W511F/W513F/W614F); experiment: Inhibition constant of JA-2, continuous assay with QFS, TOP^-TrpW390; type: biochemical; conditions: substrate QFS, 37 °C, 50 mM Tris-HCl pH 7.4, 100 mM NaCl, 0.5 mM DTT
T2 construct: made in house; host or cells: Escherichia coli BL21 (DE3), pET26b
Description: as §1, §2

TOP^-TrpW390/F178pNF [1] = target: T3, TOP^-TrpW390/F178pNF (Rattus norvegicus, UniProt P24155, W124F/W335F/W511F/W513F/W614F); experiment: Inhibition constant of JA-2, continuous assay with QFS, TOP^-TrpW390/F178pNF; type: biochemical; conditions: substrate QFS, 37 °C, 50 mM Tris-HCl pH 7.4, 100 mM NaCl, 0.5 mM DTT
T3 construct: made in house; host or cells: Escherichia coli BL21 (DE3), pET26b + pACYC184 (orthogonal tRNA/synthetase pair for pNF)
Description: as §1, §2

TOP^-TrpW390/L182pNF [2] = target: T4, TOP^-TrpW390/L182pNF (Rattus norvegicus, UniProt P24155, L182F/W124F/W335F/W511F/W513F/W614F); experiment: Inhibition constant of JA-2, continuous assay with QFS, TOP^-TrpW390/L182pNF; type: biochemical; conditions: substrate QFS, 37 °C, 50 mM Tris-HCl pH 7.4, 100 mM NaCl, 0.5 mM DTT
T4 construct: made in house; host or cells: Escherichia coli BL21 (DE3), pET26b + pACYC184 (orthogonal tRNA/synthetase pair for pNF)
Description: as §1, §2

TOP^-TrpW390/L215pNF [3] = target: T5, TOP^-TrpW390/L215pNF (Rattus norvegicus, UniProt P24155, L215F/W124F/W335F/W511F/W513F/W614F); experiment: Inhibition constant of JA-2, continuous assay with QFS, TOP^-TrpW390/L215pNF; type: biochemical; conditions: substrate QFS, 37 °C, 50 mM Tris-HCl pH 7.4, 100 mM NaCl, 0.5 mM DTT
T5 construct: made in house; host or cells: Escherichia coli BL21 (DE3), pET26b + pACYC184 (orthogonal tRNA/synthetase pair for pNF)
Description: as §1, §2

TOP^-TrpW390/Y224pNF [4] = target: T6, TOP^-TrpW390/Y224pNF (Rattus norvegicus, UniProt P24155, W124F/W335F/W511F/W513F/W614F/Y224F); experiment: Inhibition constant of JA-2, continuous assay with QFS, TOP^-TrpW390/Y224pNF; type: biochemical; conditions: substrate QFS, 37 °C, 50 mM Tris-HCl pH 7.4, 100 mM NaCl, 0.5 mM DTT
T6 construct: made in house; host or cells: Escherichia coli BL21 (DE3), pET26b + pACYC184 (orthogonal tRNA/synthetase pair for pNF)
Description: as §1, §2

TOP^-TrpW390/F178pNF [5] = target: T3, TOP^-TrpW390/F178pNF; experiment: Protein fluorescence (Trp-pNF FRET) assay in presence of JA-2, TOP^-TrpW390/F178pNF
TOP^-TrpW390/L182pNF [6] = target: T4, TOP^-TrpW390/L182pNF; experiment: Protein fluorescence (Trp-pNF FRET) assay in presence of JA-2, TOP^-TrpW390/L182pNF
TOP^-TrpW390/L215pNF [7] = target: T5, TOP^-TrpW390/L215pNF; experiment: Protein fluorescence (Trp-pNF FRET) assay in presence of JA-2, TOP^-TrpW390/L215pNF
TOP^-TrpW390/Y224pNF [8] = target: T6, TOP^-TrpW390/Y224pNF; experiment: Protein fluorescence (Trp-pNF FRET) assay in presence of JA-2, TOP^-TrpW390/Y224pNF
[9] = 13.4 µM JA-2, 0.5 µM TOP protein, 37 °C, 50 mM Tris-HCl pH 7.4, 100 mM NaCl, 0.5 mM DTT
[10] = 13.4 µM JA-2, calculated using Equation (1), R0 = 15.8 Å

T6 sequence (P24155 whole entry W124F/Y224F/W335F/W511F/W513F/W614F): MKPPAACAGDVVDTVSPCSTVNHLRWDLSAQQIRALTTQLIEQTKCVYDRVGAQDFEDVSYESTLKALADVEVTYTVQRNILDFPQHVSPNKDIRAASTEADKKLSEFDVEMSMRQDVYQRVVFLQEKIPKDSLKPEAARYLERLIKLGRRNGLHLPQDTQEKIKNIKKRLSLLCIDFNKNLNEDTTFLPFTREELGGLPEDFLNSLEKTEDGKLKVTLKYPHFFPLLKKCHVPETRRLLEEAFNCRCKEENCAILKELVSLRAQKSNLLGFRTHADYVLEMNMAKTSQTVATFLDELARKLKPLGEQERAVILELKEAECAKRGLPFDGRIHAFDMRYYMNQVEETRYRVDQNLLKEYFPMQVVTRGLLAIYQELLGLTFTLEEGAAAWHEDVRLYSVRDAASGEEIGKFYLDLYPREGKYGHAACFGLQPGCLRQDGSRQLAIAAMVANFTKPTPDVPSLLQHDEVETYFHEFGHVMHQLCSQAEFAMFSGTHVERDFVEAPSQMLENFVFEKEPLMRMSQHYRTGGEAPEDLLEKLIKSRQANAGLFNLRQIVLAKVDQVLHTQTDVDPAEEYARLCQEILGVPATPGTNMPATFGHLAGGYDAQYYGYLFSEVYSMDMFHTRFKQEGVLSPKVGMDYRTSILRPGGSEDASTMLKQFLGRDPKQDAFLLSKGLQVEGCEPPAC
T3 sequence (P24155 whole entry W124F/W335F/W511F/W513F/W614F): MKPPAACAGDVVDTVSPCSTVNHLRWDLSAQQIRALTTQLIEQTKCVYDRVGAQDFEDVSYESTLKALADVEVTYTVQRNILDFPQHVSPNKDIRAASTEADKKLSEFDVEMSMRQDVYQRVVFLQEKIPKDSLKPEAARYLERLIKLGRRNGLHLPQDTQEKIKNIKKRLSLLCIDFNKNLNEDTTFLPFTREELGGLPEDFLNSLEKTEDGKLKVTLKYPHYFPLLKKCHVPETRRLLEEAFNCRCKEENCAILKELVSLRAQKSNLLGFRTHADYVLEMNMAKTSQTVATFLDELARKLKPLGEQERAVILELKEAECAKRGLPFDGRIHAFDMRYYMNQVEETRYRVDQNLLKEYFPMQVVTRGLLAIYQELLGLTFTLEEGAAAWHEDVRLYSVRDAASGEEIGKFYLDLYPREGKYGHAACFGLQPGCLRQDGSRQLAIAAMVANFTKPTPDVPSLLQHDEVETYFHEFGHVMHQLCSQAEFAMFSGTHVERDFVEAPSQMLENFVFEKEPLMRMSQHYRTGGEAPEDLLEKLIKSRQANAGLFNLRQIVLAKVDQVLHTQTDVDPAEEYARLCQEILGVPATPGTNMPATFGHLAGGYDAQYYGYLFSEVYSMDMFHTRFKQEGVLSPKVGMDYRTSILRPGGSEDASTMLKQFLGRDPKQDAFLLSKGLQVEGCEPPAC
T4 sequence (P24155 whole entry W124F/L182F/W335F/W511F/W513F/W614F): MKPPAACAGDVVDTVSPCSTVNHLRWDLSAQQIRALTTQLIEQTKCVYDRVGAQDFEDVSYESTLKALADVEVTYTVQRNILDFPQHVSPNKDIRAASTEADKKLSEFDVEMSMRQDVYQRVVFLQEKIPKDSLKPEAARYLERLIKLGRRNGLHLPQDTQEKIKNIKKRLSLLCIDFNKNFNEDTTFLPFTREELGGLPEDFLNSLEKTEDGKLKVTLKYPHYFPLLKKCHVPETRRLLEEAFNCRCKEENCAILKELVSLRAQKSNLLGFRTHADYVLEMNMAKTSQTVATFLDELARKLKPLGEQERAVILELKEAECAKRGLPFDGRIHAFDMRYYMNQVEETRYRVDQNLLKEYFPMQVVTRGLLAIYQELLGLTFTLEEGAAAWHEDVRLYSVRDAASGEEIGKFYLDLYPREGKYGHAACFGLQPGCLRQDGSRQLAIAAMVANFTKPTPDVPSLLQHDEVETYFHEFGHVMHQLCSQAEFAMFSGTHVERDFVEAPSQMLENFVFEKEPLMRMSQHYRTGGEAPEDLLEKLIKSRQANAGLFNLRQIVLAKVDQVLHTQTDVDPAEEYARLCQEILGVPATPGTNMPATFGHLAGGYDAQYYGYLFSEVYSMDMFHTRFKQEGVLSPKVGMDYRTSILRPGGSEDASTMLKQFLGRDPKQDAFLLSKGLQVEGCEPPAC
T5 sequence (P24155 whole entry W124F/L215F/W335F/W511F/W513F/W614F): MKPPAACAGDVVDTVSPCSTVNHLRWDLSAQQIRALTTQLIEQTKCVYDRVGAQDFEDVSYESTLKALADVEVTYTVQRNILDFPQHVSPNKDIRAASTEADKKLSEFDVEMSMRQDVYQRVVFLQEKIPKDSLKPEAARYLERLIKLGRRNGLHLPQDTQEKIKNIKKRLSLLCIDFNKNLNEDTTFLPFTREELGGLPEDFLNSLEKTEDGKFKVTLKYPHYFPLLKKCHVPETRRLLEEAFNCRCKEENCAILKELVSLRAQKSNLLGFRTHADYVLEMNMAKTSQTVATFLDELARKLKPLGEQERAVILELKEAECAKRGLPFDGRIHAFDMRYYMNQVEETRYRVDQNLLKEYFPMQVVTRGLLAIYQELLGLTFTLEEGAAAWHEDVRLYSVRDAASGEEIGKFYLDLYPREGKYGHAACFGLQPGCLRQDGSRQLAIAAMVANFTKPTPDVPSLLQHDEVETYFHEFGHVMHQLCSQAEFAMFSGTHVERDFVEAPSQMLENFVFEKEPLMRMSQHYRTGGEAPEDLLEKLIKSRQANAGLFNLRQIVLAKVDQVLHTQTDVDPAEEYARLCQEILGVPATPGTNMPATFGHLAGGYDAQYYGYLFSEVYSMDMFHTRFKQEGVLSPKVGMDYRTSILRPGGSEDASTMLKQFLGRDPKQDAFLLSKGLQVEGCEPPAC
T2 sequence (P24155 whole entry W124F/W335F/W511F/W513F/W614F): as the sequence (P24155 whole entry W124F/W335F/W511F/W513F/W614F) above
T1 sequence (P24155 whole entry): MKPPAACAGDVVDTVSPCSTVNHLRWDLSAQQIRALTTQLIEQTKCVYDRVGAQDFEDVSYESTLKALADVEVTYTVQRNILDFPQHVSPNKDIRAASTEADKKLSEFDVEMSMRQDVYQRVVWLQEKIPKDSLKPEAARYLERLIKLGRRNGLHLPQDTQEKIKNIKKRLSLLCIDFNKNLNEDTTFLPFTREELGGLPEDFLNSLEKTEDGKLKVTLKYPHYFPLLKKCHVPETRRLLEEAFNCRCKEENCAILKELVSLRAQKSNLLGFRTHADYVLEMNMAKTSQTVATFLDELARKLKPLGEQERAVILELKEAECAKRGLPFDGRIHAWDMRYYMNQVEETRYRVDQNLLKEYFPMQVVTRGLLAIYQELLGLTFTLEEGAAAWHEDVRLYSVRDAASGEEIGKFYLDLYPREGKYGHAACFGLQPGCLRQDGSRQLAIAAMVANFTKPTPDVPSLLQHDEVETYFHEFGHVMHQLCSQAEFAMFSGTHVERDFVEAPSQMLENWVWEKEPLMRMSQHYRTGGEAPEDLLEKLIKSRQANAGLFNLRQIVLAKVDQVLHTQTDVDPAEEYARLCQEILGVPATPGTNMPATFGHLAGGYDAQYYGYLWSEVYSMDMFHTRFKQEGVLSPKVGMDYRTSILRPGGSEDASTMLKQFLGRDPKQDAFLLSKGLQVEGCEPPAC

How did the Ki (WT TOP) turn out when `C[C@H](NC(CCc1ccccc1)C(=O)O)C(=O)NC(C)(C)C(=O)N[C@@H](Cc1ccc(O)cc1)C(=O)Nc1ccc(C(=O)O)cc1` (stereo partly drawn) [JA-2, N-[1-(R,S)-carboxy-3-phenylpropyl]Ala-Aib-Tyr-p-aminobenzoate] was run?
The Ki was 32 ± 1 nM.

And the Ki (TOP^-TrpW390)?
Its Ki is 750 ± 40 nM.

What about the Ki (TOP^-TrpW390/F178pNF [1]) of the same compound?
Its Ki is 1230 ± 80 nM.

What about the Ki (TOP^-TrpW390/L182pNF [2]) of the same compound?
Its Ki is 740 ± 60 nM.

What about the Ki (TOP^-TrpW390/L215pNF [3]) of the same compound?
The Ki was 870 ± 50 nM.

And the Ki (TOP^-TrpW390/Y224pNF [4])?
The Ki was 1160 ± 60 nM.

And the “FRET Efficiency, +JA-2” value (TOP^-TrpW390/F178pNF [5]; [9])?
The value was 0.150 ± 0.009.

What about the “D-A Distance, +JA-2” value (TOP^-TrpW390/F178pNF [5]; [10]) of the same compound?
Its value is 21 Å.

What about the “FRET Efficiency, +JA-2” value (TOP^-TrpW390/L182pNF [6]; [9]) of the same compound?
The value was 0.24 ± 0.02.

What about the “D-A Distance, +JA-2” value (TOP^-TrpW390/L182pNF [6]; [10]) of the same compound?
The value was 19 Å.

And the “FRET Efficiency, +JA-2” value (TOP^-TrpW390/L215pNF [7]; [9])?
Its value is 0.10 ± 0.005.

And the “D-A Distance, +JA-2” value (TOP^-TrpW390/L215pNF [7]; [10])?
The value was 23 Å.

What about the “FRET Efficiency, +JA-2” value (TOP^-TrpW390/Y224pNF [8]; [9]) of the same compound?
The value was 0.30 ± 0.02.

And the “D-A Distance, +JA-2” value (TOP^-TrpW390/Y224pNF [8]; [10])?
The value was 18 Å.

— paper PMC9266445, “Probing the Conformational States of Thimet Oligopeptidase in Solution” (International Journal of Molecular Sciences, 2022)
